# Data: ChEMBL document CHEMBL1649554, “Specific therapeutic schemes of omeprazole affect the orientation of Helicobacter pylori” (Antimicrob Agents Chemother, 2009)
# The source made the active and inactive calls. The rule behind the calls is not given here.
# Experiments:
# Helicobacter pylori [1] = experiment: Antibacterial activity against Helicobacter pylori SS1 infected in Mongolian gerbils assessed as bacterial orientation in luminal mucus layer at 0.25 mg, ip administered as two subsequent doses in 8 hrs dosing interval; assay type: functional, organism-based
# Helicobacter pylori [2] = experiment: Antibacterial activity against Helicobacter pylori SS1 infected in Mongolian gerbils assessed as bacterial orientation in central layer at 0.25 mg, ip administered as two subsequent doses in 8 hrs dosing interval; assay type: functional, organism-based
# Helicobacter pylori [3] = experiment: Antibacterial activity against Helicobacter pylori SS1 infected in Mongolian gerbils assessed as bacterial orientation in 15 to 25 um above the Juxtamucosal layer at 0.25 mg, ip administered as two subsequent doses in 8 hrs dosing interval; assay type: functional, organism-based
# Helicobacter pylori [4] = experiment: Antibacterial activity against Helicobacter pylori SS1 infected in Mongolian gerbils assessed as bacterial orientation in 0 to 15 um above the Juxtamucosal layer at 0.25 mg, ip administered as two subsequent doses in 8 hrs dosing interval; assay type: functional, organism-based
# Helicobacter pylori [5] = experiment: Antibacterial activity against Helicobacter pylori SS1 infected in Mongolian gerbils assessed as bacterial orientation in 15 to 25 um above the Juxtamucosal layer at 35 ug/ml administered as single dose in 8 hrs dosing interval; assay type: functional, organism-based
# [6] = Cmax in Mongolian gerbils plasma at 0.5 mg, ip; assay type: ADME, organism-based, Meriones unguiculatus; parameters: dose 0.5 mg, route intraperitoneal; conditions: gerbil
# Helicobacter pylori [7] = experiment: Antibacterial activity against Helicobacter pylori SS1 infected in Mongolian gerbils assessed as bacterial density in mucus in luminal mucus layer at 0.25 mg, ip administered as two doses in 8 hrs dosing interval measured after 90 mins post last dose (reference value: 60+/-50 bacteria per nl of mucus); assay type: functional
# Helicobacter pylori [8] = experiment: Antibacterial activity against Helicobacter pylori SS1 infected in Mongolian gerbils assessed as bacterial density in mucus in luminal mucus layer at 0.25 mg, ip administered as two doses of solvent in 24 hrs dosing interval measured after 90 mins post last dose (reference value: 60+/-50 bacteria per nl of mucus); assay type: functional
# Helicobacter pylori [9] = experiment: Antibacterial activity against Helicobacter pylori SS1 infected in Mongolian gerbils assessed as bacterial density in mucus in central mucus layer at 0.25 mg, ip administered as two doses in 24 hrs dosing interval measured after 90 mins post last dose (reference value: 90+/-60 bacteria per nl of mucus); assay type: functional
# Helicobacter pylori [10] = experiment: Antibacterial activity against Helicobacter pylori SS1 infected in Mongolian gerbils assessed as bacterial density in mucus in central mucus layer at 0.25 mg, ip administered as two doses in 8 hrs dosing interval measured after 90 mins post last dose (reference value: 90+/-60 bacteria per nl of mucus); assay type: functional
# Helicobacter pylori [11] = experiment: Antibacterial activity against Helicobacter pylori SS1 infected in Mongolian gerbils assessed as decrease in bacterial density in mucus in 15 to 25 um above the Juxtamucosal layer at 0.25 mg, ip administered as single dose for 5 days measured after 90 mins post last dose; assay type: functional; parameters: scale not given: the % may be the effect or the level left
# Helicobacter pylori [12] = experiment: Antibacterial activity against Helicobacter pylori SS1 infected in Mongolian gerbils assessed as bacterial density in mucus in 15 to 25 um above the Juxtamucosal layer at 20 uM, ip administered as single dose through dialysis measured after 90 mins post last dose (reference value: 2280+/-430 bacteria per nl of mucus); assay type: functional
# Helicobacter pylori [13] = experiment: Antibacterial activity against Helicobacter pylori SS1 infected in Mongolian gerbils assessed as decrease in bacterial density in mucus in 0 to 15 um above the Juxtamucosal layer at 0.25 mg, ip administered as single dose for 5 days measured after 90 mins post last dose; assay type: functional; parameters: scale not given: the % may be the effect or the level left
# Helicobacter pylori [14] = experiment: Antibacterial activity against Helicobacter pylori SS1 infected in Mongolian gerbils assessed as bacterial density in mucus in 0 to 15 um above the Juxtamucosal layer at 0.25 mg, ip administered as two doses in 24 hrs dosing interval measured after 90 mins post last dose (reference value: 4560+/-400 bacteria per nl of mucus); assay type: functional
# Helicobacter pylori [15] = experiment: Antibacterial activity against Helicobacter pylori SS1 infected in Mongolian gerbils assessed as bacterial density in mucus in 0 to 15 um above the Juxtamucosal layer at 0.25 mg, ip administered as two doses of solvent in 24 hrs dosing interval measured after 90 mins post last dose (reference value: 4560+/-400 bacteria per nl of mucus); assay type: functional
# Helicobacter pylori [16] = experiment: Antibacterial activity against Helicobacter pylori SS1 infected in Mongolian gerbils assessed as bacterial density in mucus in 0 to 15 um above the Juxtamucosal layer at 20 uM, ip administered as single dose through dialysis measured after 90 mins post last dose (reference value: 4560+/-400 bacteria per nl of mucus); assay type: functional
# Helicobacter pylori [17] = experiment: Antibacterial activity against Helicobacter pylori SS1 infected in Mongolian gerbils assessed as bacterial disorientation in central mucus layer at 0.25 mg, ip administered as two doses in 24 hrs dosing interval measured after 90 mins post last dose; assay type: functional, organism-based
# [18] = Cmax in Mongolian gerbils plasma; assay type: ADME, Meriones unguiculatus; conditions: gerbil
# Helicobacter pylori [19] = experiment: Antibacterial activity against Helicobacter pylori SS1 infected in Mongolian gerbils assessed as bacterial disorientation in 0 to 15 um above the Juxtamucosal layer at 0.25 mg, ip administered as two doses in 24 hrs dosing interval measured after 90 mins post last dose; assay type: functional, organism-based
# Helicobacter pylori [20] = experiment: Antibacterial activity against Helicobacter pylori SS1 infected in Mongolian gerbils assessed as bacterial disorientation in luminal mucus layer at 0.25 mg, ip administered as two doses in 8 hrs dosing interval measured after 90 mins post last dose; assay type: functional, organism-based
# Helicobacter pylori [21] = experiment: Antibacterial activity against Helicobacter pylori SS1 infected in Mongolian gerbils assessed as bacterial disorientation in central mucus layer at 0.25 mg, ip administered as two doses in 8 hrs dosing interval measured after 90 mins post last dose; assay type: functional, organism-based
# Helicobacter pylori [22] = experiment: Antibacterial activity against Helicobacter pylori SS1 infected in Mongolian gerbils assessed as bacterial disorientation in 0 to 15 um above the Juxtamucosal layer at 0.25 mg, ip administered as two doses in 8 hrs dosing interval measured after 90 mins post last dose; assay type: functional, organism-based
# Helicobacter pylori [23] = experiment: Antibacterial activity against Helicobacter pylori SS1 infected in Mongolian gerbils assessed as bacterial disorientation in 15 to 25 um above the Juxtamucosal layer at 0.25 mg, ip followed by second dose administered as solvent in 24 hrs dosing interval measured after 90 mins post last dose; assay type: functional, organism-based
# Helicobacter pylori [24] = experiment: Antibacterial activity against Helicobacter pylori SS1 infected in Mongolian gerbils assessed as bacterial disorientation in 0 to 15 um above the Juxtamucosal layer at 0.25 mg, ip followed by second dose administered as solvent in 24 hrs dosing interval measured after 90 mins post last dose; assay type: functional, organism-based
# Helicobacter pylori [25] = experiment: Antibacterial activity against Helicobacter pylori SS1 infected in Mongolian gerbils assessed as bacterial disorientation in luminal mucus layer at 0.25 mg, ip administered as two doses of solvent measured after 90 mins post last dose (reference value: 4560+/-400 bacteria per nl of mucus); assay type: functional, organism-based
# Helicobacter pylori [26] = experiment: Antibacterial activity against Helicobacter pylori SS1 infected in Mongolian gerbils assessed as bacterial disorientation in central layer at 0.25 mg, ip administered as two doses of solvent measured after 90 mins post last dose (reference value: 4560+/-400 bacteria per nl of mucus); assay type: functional, organism-based
# Helicobacter pylori [27] = experiment: Antibacterial activity against Helicobacter pylori SS1 infected in Mongolian gerbils assessed as bacterial disorientation in 15 to 25 um above the Juxtamucosal layer at 0.25 mg, ip administered as two doses of solvent measured after 90 mins post last dose (reference value: 4560+/-400 bacteria per nl of mucus); assay type: functional, organism-based
# Helicobacter pylori [28] = experiment: Antibacterial activity against Helicobacter pylori SS1 infected in Mongolian gerbils assessed as bacterial disorientation in luminal mucus layer at 20 uM, ip administered as single dose through dialysis measured after 90 mins post last dose; assay type: functional, organism-based
structure (smiles),measurement,setting,value
COc1ccc2[nH]c([S+]([O-])Cc3ncc(C)c(OC)c3C)nc2c1 (stereo not drawn) [OMEPRAZOLE],Activity,Helicobacter pylori [1],inactive
same,Activity,Helicobacter pylori [2],inactive
same,Activity,Helicobacter pylori [3],inactive
same,Activity,Helicobacter pylori [4],inactive
same,Activity,Helicobacter pylori [5],inactive
same,Cmax,[6],20 µM
same,Activity,Helicobacter pylori [7],30 nL⁻¹
same,Activity,Helicobacter pylori [8],70 nL⁻¹
same,Activity,Helicobacter pylori [9],300 nL⁻¹
same,Activity,Helicobacter pylori [10],30 nL⁻¹
same,Activity,Helicobacter pylori [11],5%
same,Activity,Helicobacter pylori [12],2010 nL⁻¹
same,Activity,Helicobacter pylori [13],5%
same,Activity,Helicobacter pylori [14],3310 nL⁻¹
same,Activity,Helicobacter pylori [15],5740 nL⁻¹
same,Activity,Helicobacter pylori [16],5050 nL⁻¹
same,Activity,Helicobacter pylori [17],inactive
same,Cmax,[18],10 µM
same,Activity,Helicobacter pylori [19],Active
same,Activity,Helicobacter pylori [20],inactive
same,Activity,Helicobacter pylori [21],inactive
same,Activity,Helicobacter pylori [22],Active
same,Activity,Helicobacter pylori [23],inactive
same,Activity,Helicobacter pylori [24],Active
same,Activity,Helicobacter pylori [25],inactive
same,Activity,Helicobacter pylori [26],inactive
same,Activity,Helicobacter pylori [27],inactive
same,Activity,Helicobacter pylori [28],inactive
